d = 2'-deoxy (DNA)
How the values were obtained:
Assay type in all cases: cell-based, human
HCT116 p53+/+ cells = experiment: Apoptosis (annexin-V staining, phase contrast); details: 24 h drug exposure
Description: (§1) Phase contrast digital images were captured using an Axiovert 200M microscope (Zeiss). Apoptotic cells were identified by flow cytometry using annexin-V-Fluos (Roche) following the manufacturer's protocol.
(§2) Cells for transfection and/or drug treatment were plated at a density of 6×10^4 (ARPE-19) or 1.4×10^5 (HCT116) per well in 6-well plates. For the experiment in FIG. 3a, ARPE-19 cells were plated at a density of 4×10^4 per well. Transfections were performed 24 hours post-plating in Opti-MEM (Gibco) using Oligofectamine (Invitrogen) according to the manufacturer's instructions. Chemically synthesized, HPLC-purified siRNAs were obtained from Qiagen or Dharmacon. SIRT1 siRNA sequence has been described^27. JNK1 siRNA sequences were: Sense 5′-CUCCACCACCAAAGAUCCC(dTdT)-3′, antisense 5′-GGGAUCUUUGGUGGUGGAG(dTdT)-3′. JNK2 siRNA sequences were: Sense 5′-GAGCUGGUGAAAGGUUGUG(dTdT)-3′, antisense 5′-CACAACCUUU CACCAGCUC(dTdT)-3′. Specificities of SIRT1 siRNA, JNK1 sIRNA and JNK2 siRNA have been validated previously¢ (Ahmed and Milner, in submission). Cells were harvested for analysis 48 h post-transfection, except where indicated otherwise. For drug treatment, drugs were applied by complete media replacement 48 h post-plating at final concentration 375 μM (5-FU) or 425 μM (uridine). […]

SIRT1 = experiment: Immunoblotting of total SIRT1, SIRT1 S27P and SIRT1 S47P
Description: (§3) Epithelial cancer cell lines RKO, LoVo, DLD-1, HT29, U2OS, SAOS-2, MCF7, HTB-126, HT-1080 and SiHa were obtained from ATCC. Isogenic colorectal carcinoma cell lines HCT116 p53+/+ and HCT116 p53−/− were a kind gift of Bert Vogelstein. Non-cancer cells were normal diploid fibroblasts (NDF) and ARPE-19 immortalised retinal epithelial cells (ATCC), and normal human embryonic keratinocytes (NHEK, Invitrogen). Cells were cultured according to the supplier's protocols. siRNA sequences, transfection protocols and target validations were as described (Ref. 27 and Methods). For drug treatments, cells were treated 48 hours post-plating with final concentration of 5-FU (375 OM) and uridine (425 OM) as indicated and harvested 24 h later. For combined transfection/drug treatment, drugs were applied 24 h post-transfection and cells harvested 24 h later. For time course analyses cells were harvested at indicated time points post-treatment.
(§4) Cells were prepared as described (Methods). For immunoblotting equivalent numbers of cells, or equivalent amounts of protein, were loaded in each lane. Antibodies were: Anti-SIRT1 (H-300, Santa Cruz), anti-phosphoserine27-SIRT1 (#2327, Cell Signaling), anti-phosphoserine47-SIRT1 (#2314, Cell Signaling), anti-actin (MAB1501, Chemicon), anti-p53 (00-1, Santa Cruz), anti-acetylated-p53-lysine382 (#2525, Cell Signaling), anti-JNK1 (F-3, Santa Cruz), anti-JNK2 (#4672, Cell Signaling). Visualisation of bound antibodies was by ECL, with quantitation by densitometry of signals within the linear range.
(§5) Cells for transfection and/or drug treatment were plated at a density of 6×10^4 (ARPE-19) or 1.4×10^5 (HCT116) per well in 6-well plates. For the experiment in FIG. 3a, ARPE-19 cells were plated at a density of 4×10^4 per well. Transfections were performed 24 hours post-plating in Opti-MEM (Gibco) using Oligofectamine (Invitrogen) according to the manufacturer's instructions. Chemically synthesized, HPLC-purified siRNAs were obtained from Qiagen or Dharmacon. SIRT1 siRNA sequence has been described^27. JNK1 siRNA sequences were: Sense 5′-CUCCACCACCAAAGAUCCC(dTdT)-3′, antisense 5′-GGGAUCUUUGGUGGUGGAG(dTdT)-3′. JNK2 siRNA sequences were: Sense 5′-GAGCUGGUGAAAGGUUGUG(dTdT)-3′, antisense 5′-CACAACCUUU CACCAGCUC(dTdT)-3′. Specificities of SIRT1 siRNA, JNK1 sIRNA and JNK2 siRNA have been validated previously¢ (Ahmed and Milner, in submission). Cells were harvested for analysis 48 h post-transfection, except where indicated otherwise. For drug treatment, drugs were applied by complete media replacement 48 h post-plating at final concentration 375 μM (5-FU) or 425 μM (uridine). Cells were harvested for analysis 24h following application of drugs, or at the indicated timepoints for time-course analysis. For combined transfection/drug experiments, drugs were applied approximately […] post-transfection. Cells from combined transfection/drug experiments were harvested for analysis after 24 hours of drug exposure (˜48 hours post-transfection).
For preparation of total protein lysates, cell counts or protein assay was performed, with the method chosen consistent within each experiment. Cells were lysed in lysis buffer IPAMN (10 mM TRIS base pH 8.0, 140 mM NaCl, 2 mM CaCl2, 0.5% NP-40, 5 U ml^−1 micrococcal nuclease) for 3 minutes at room temperature followed by addition of 0.25× volumes of 6×SDS-PAGE sample buffer and brief heating to 90° C. Samples for protein assay were withdrawn before addition of 6×SDS-PAGE sample buffer, and assayed using BCA Protein Assay Kit (Pierce) according to the manufacturers instructions. Equivalent numbers of cells, or equivalent amounts of protein, were electrophoresed on 10% or 15% SDS-PAGE, electrobiotted to Protran membrane (Schleicher&Schuell) using a wet-blot transfer system, blocked for 1 hour at room temperature and probed with primary antibodies overnight at 4° C. […]

SIRT1 mRNA = experiment: Quantitative RT-PCR of SIRT1 mRNA; details: for SIRT1 mRNA estimated t1/2: following administration of 5-FU
Description: as §3
Cellular mRNAs were extracted for quantitative RT-PCR as previously described^27. Primers and thermal cycling conditions were as described^27 (Methods); quantifications were performed in triplicate.
as §5
Relative mRNA levels were quantitated by realtime RT-PCR. […] SIRT1 primers 5′-[…]-3′ and 5′-[…]-3′ were used in the thermal cycle: 50° C. for 30 minutes, 94° C. for 15 minutes, followed by 35 cycles of 94° C. for 30 seconds, 55° C. for 30 seconds, 72° C. for 30 seconds, then 75° C. for 15 seconds before the plate was read. JNK1 primers 5′-[…]-3′ and 5′-[…]-3′ were used in the thermal cycle: 50° C. for 30 minutes, 94° C. for 15 minutes, followed by 35 cycles of 94° C. for 30 seconds, 57° C. for 30 seconds, 72° C. for 30 seconds, then 75° C. for 15 seconds before the plate was read. JNK2 primers 5′-[…]-3′ and 5′-[…]-3′ were used in the thermal cycle: 50° C. for 30 minutes, 94° C. for 15 minutes, followed by 35 cycles of 94° C. for 30 seconds, 55° C. for 30 seconds, 72° C. for 30 seconds, then 75° C. for 15 seconds before the plate was read. All RT-PCR quantifications were performed in triplicate.

ARPE-19 cells = experiment: Cell viability / apoptosis (annexin-V staining, phase contrast); details: 24 h drug exposure
Description: as §1, §2

p53 = experiment: Immunoblotting of p53 and p53 K382Ac
Description: as §3, §4
as §2, with “(uridine). Cells were harvested for analysis 24h following application of drugs, or at the indicated timepoints for time-course analysis.” for “(uridine).”

laminA/C and GAPDH mRNAs = experiment: Quantitative RT-PCR of laminA/C and GAPDH mRNAs; details: 5-FU for 24 h
Description: Epithelial cancer cell lines RKO, LoVo, DLD-1, HT29, U2OS, SAOS-2, MCF7, HTB-126, HT-1080 and SiHa were obtained from ATCC. Isogenic colorectal carcinoma cell lines HCT116 p53+/+ and HCT116 p53−/− were a kind gift of Bert Vogelstein. Non-cancer cells were normal diploid fibroblasts (NDF) and ARPE-19 immortalised retinal epithelial cells (ATCC), and normal human embryonic keratinocytes (NHEK, Invitrogen). Cells were cultured according to the supplier's protocols. siRNA sequences, transfection protocols and target validations were as described (Ref. 27 and Methods). […]
Cellular mRNAs were extracted for quantitative RT-PCR as previously described^27. Primers and thermal cycling conditions were as described^27 (Methods); quantifications were performed in triplicate. […]
Relative mRNA levels were quantitated by realtime RT-PCR. […] SIRT1 primers 5′-[…]-3′ and 5′-[…]-3′ were used in the thermal cycle: 50° C. for 30 minutes, 94° C. for 15 minutes, followed by 35 cycles of 94° C. for 30 seconds, 55° C. for 30 seconds, 72° C. for 30 seconds, then 75° C. for 15 seconds before the plate was read. JNK1 primers 5′-[…]-3′ and 5′-[…]-3′ were used in the thermal cycle: 50° C. for 30 minutes, 94° C. for 15 minutes, followed by 35 cycles of 94° C. for 30 seconds, 57° C. for 30 seconds, 72° C. for 30 seconds, then 75° C. for 15 seconds before the plate was read. […]

exogenous SIRT1 protein = experiment: Exogenous SIRT1 expression after RNAi and cycloheximide time course, immunoblotting
Excerpt: FIG. 13 JNK-dependent phosphorylation at S27 stabilises exogenous SIRT1 protein. a. Schematic of experimental protocol for RNA′ followed by transfection with exogenous SIRT1 expression vector (see text). b. Exogenous expression of SIRT1 in intact HCT116 cells (lane 2), JNK2-depleted cells (lane 3) and JNK1-depleted cells (lane 4) detected by immunoblotting. Lane 1 =intact, non-transfected cells. Note that in both intact cells and JNK1-depleted cells the exogenous SIRT1 is phosphorylated on S27 and S47, whereas in JNK2-depleted cells S27P levels reflect endogenous SIRT1 (lanes 1 and 3, asterix), c, d. Time course analyses of SIRT1 protein levels and SIRT1 S27P following addition of cycloheximide in intact (panel c) and JNK2-depleted (panel d) HCT116 cells as indicated. e. SIRT1 protein levels at indicated times post treatment with cycloheximide (CHX) in intact cells (solid circles, solid line) and in JNK-depleted cells (open circles, dashed line).
To further explore the relationship between SIRT1 and JNK2 we expressed exogenous . SIRT1 in HCT116 p53+/+ cells in which JNK2 had been depleted by RNAI (Methods and FIG. 13a). When expressed in intact cells exogenous SIRT1 protein was phosphorylated at both S27 and S47 (FIG. 13b, lane 2). […] In addition total exogenous SIRT1 protein levels were reduced in JNK2-depleted cells (FIG. 13b, lane 3 cp. lane 2, SIRT1), consistent with reduced SIRT1 protein stability in the absence of S27 phosphorylation. […] S47 kinase/phosphatase activity. […] Thus JNK2, but not JNK1, is required for S27 phosphorylation and associated accumulation of SIRT1 protein.
Reduced accumulation of SIRT1 protein under these conditions is consistent with the premise that JNK2-dependent phosphorylation of SIRT1 at S27P stabilises the SIRT1 protein. This was confirmed by time course studies in which exogenous SIRT1 protein levels were monitored following inhibition of protein synthesis by cycloheximide. […] In intact cells exogenous SIRT1 protein was phosphorylated at S27 (FIG. 13c) and was also stable over 9 hr (FIGS. 13c and 13e). However, in JNK2-depleted cells exogenous SIRT1 protein lacked S27P (FIG. 13d) and protein levels declined with a half life of approximately 2 hrs (FIGS. 13d and 13e). We conclude that JNK2 is required, directly or indirectly, for phosphorylation of SIRT1 at S27 and that this is linked with stabilisation of SIRT1 protein in HCT116 cancer cells.

O=c1[nH]cc(F)c(=O)[nH]1 [5-FU, 5-fluorouracil]
apoptosis (HCT116 p53+/+ cells): apoptosis
total SIRT1 protein levels (SIRT1; ARPE-19 cells): increased 6 h after 5-FU treatment and subsequently declined by 24 h
SIRT1 S27 phosphorylation (SIRT1; HCT116 p53+/+ cells): lost
total SIRT1 protein levels (SIRT1; HCT116 p53+/+ cells): stable over 12 h, but declined by 24 h post-treatment
SIRT1 S27 phosphorylation (SIRT1; HCT116 p53−/− cells): retained
total SIRT1 protein levels (SIRT1; HCT116 p53−/− cells): remains constant up to at least 48 h
depletion of SIRT1 mRNA (SIRT1 mRNA; 5-FU (375 μM) for 24 h, ARPE-19 and HCT116 cells (FIG. 2a)): 80%
SIRT1 mRNA estimated t1/2 (SIRT1 mRNA; ARPE-19 cells): ~4 h
SIRT1 mRNA estimated t1/2 (SIRT1 mRNA; HCT116 cells): < 2 h
cell viability (ARPE-19 cells): remained viable
acetylation of p53 (p53; ARPE-19 cells): undetectable
p53 response (p53; ARPE-19 cells): attenuated
p53 K382 acetylation (p53; HCT116 p53+/+ cells): induction
p53 response (p53; HCT116 p53+/+ cells): sustained
lamin A/C and GAPDH mRNA levels (laminA/C and GAPDH mRNAs): relatively unaffected

JNK1 siRNA: siRNA: sense 5′-CUCCACCACCAAAGAUCCC(dTdT)-3′, antisense 5′-GGGAUCUUUGGUGGUGGAG(dTdT)-3′ (RNA, 3' dTdT, backbone not given here)
SIRT1 protein levels, S27 or S47 phosphorylation (SIRT1; ARPE-19, HCT116 p53+/+ or HCT116 p53−/− cells): no effect
total SIRT1 protein levels (SIRT1; ARPE-19 cells): no effect
exogenous expression of SIRT1 and its phosphorylation (exogenous SIRT1 protein; HCT116 p53+/+ cells): indistinguishable from the intact controls

JNK2 siRNA: siRNA: sense 5′-GAGCUGGUGAAAGGUUGUG(dTdT)-3′, antisense 5′-CACAACCUUU CACCAGCUC(dTdT)-3′ (antisense CACAACCUUUCACCAGCUC; RNA, 3' dTdT, backbone not given here)
total SIRT1 protein levels (SIRT1; ARPE-19 cells): reduced levels of SIRT1 protein
SIRT1 S27 phosphorylation (SIRT1; HCT116 p53+/+ cells): loss of SIRT1 S27P
SIRT1 S47P (SIRT1; HCT116 p53+/+ cells): barely detectable
total SIRT1 protein levels (SIRT1; HCT116 p53+/+ cells): reduced SIRT1 protein levels
SIRT1 protein levels or phosphorylation status (SIRT1; HCT116 p53−/− cells): little effect
SIRT1 mRNA levels (SIRT1 mRNA; ARPE-19 cells, 24-96 h post-transfection): remained constant
SIRT1 mRNA levels (SIRT1 mRNA; HCT116 p53+/+ cells): absence of any reduction
half life of exogenous SIRT1 protein (exogenous SIRT1 protein; HCT116 cells, following addition of cycloheximide): approximately 2 hrs
S27 phosphorylation of exogenous SIRT1 protein (exogenous SIRT1 protein; HCT116 p53+/+ cells): non-phosphorylated at S27
exogenous SIRT1 S47P (exogenous SIRT1 protein; HCT116 p53+/+ cells): clearly detectable
total exogenous SIRT1 protein levels (exogenous SIRT1 protein; HCT116 p53+/+ cells): reduced
